In publication PMC8682804 (Science signaling, 2021):

How the values were obtained:
PTHR^CFP and βarr-2^YFP = target: T1, PTHR^CFP and βarr-2^YFP (Homo sapiens, UniProt Q03431); experiment: Time-course of β-arr2 recruitment by FRET; format: cell-based; conditions: comparison of PTH^WT and its diastereomers, fig. S1C
T1 sequence (Q03431 27-593): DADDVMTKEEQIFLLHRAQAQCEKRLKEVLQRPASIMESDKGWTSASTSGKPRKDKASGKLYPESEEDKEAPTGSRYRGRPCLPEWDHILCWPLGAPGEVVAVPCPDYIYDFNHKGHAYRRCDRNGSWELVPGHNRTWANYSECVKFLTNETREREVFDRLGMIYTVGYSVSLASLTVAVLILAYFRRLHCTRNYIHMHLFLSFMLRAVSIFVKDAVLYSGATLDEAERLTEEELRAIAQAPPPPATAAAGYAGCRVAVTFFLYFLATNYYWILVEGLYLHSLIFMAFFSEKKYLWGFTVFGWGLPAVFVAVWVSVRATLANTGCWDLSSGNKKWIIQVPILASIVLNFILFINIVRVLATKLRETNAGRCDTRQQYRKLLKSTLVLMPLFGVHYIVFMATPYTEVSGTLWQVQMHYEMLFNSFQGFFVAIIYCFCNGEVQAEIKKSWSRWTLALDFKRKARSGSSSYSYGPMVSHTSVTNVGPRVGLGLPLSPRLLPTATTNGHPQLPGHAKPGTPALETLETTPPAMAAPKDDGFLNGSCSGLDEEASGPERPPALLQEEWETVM

PTHR = target: T2, PTHR (Homo sapiens, UniProt Q03431); experiment: Time-course measurement of cAMP by FRET; format: cell-based; conditions: comparison of PTH^WT and its diastereomers, fig. S1B
T2 sequence (Q03431 27-593): T1 sequence (Q03431 27-593)

[1] = target: PTHR in membranes of HEK-293-Gs-null cells (clone CL2) (UniProt Q03431); experiment: radioligand binding

cAMP production time course (PTHR) | Substance | interaction of PTHR with β-arr2, time course (PTHR^CFP and βarr-2^YFP) | IC50 [1]
indistinguishable increases in cAMP | (D)-Asn([10])-PTH1–34 [PTH^10d] | stimulated the interaction of PTHR with β-arr2 | –
– | (D)-Leu(7)-PTH_(1–34)-NH2 (PTH^7d) (peptide) | – | 100 pM
– | PTH_(1–34) (PTH^WT), the synthetic N-terminal fragment of parathyroid hormone (peptide) | – | 100 pM
